Measurements: publication PMC8300687, “A Fine-Tuned Lipophilicity/Hydrophilicity Ratio Governs Antibacterial Potency and Selectivity of Bifurcated Halogen Bond-Forming NBTIs” (Antibiotics, 2021)
Values after ≈ are worked out from the molar mass of the structure shown. Where two headings read alike, the source gives them in different places.

How the values were obtained:
S. aureus Topo IV = molecular target: T1, S. aureus Topo IV (Staphylococcus aureus, UniProt Q2FYS4); assay: biochemical; details: for IC50: mean of two to four measurements, read-out: Topoisomerase IV IC50 S. aureus; for LE Topo IV S. aureus: LE = (1.37/HA) × pIC50
T1 construct: purchased Inspiralis (Norwich, UK)
Experimental: (§1) A Topo IV Relaxation High Throughput Plate assay kit, purchased from Inspiralis (Norwich. UK) was used to determine IC50 values of compounds on S. aureus and E. coli. […] Biotinylated oligonucleotide in wash buffer was immobilized onto the wells, and the excess oligonucleotide was washed off with wash buffer and ultrapure water. 1.5 U of S. aureus or E. coli […] enzyme was incubated together with 0.75 μg of supercoiled pNO1 plasmid as a substrate in the presence of 3 μL inhibitor solution in 10% DMSO and 0.008% Tween 20 at 37 °C for 30 min in a final reaction volume of 30 μL in dilution buffer (50 mM Tris-HCl (pH 7.5), 1 mM DTT, 1 mM EDTA, 40% (w/v) glycerol for S. aureus and 40 mM HEPES, KOH (pH 7.6), 100 mM potassium glutamate, 1 mM DTT, 1 mM EDTA, and 40% (v/v) glycerol for E. coli). The reactions were stopped by adding the TF buffer (50 mM NaOAc (pH 4.7), 50 mM NaCl, and 50 mM MgCl2) to allow the triplex formation (biotin-oligonucleotide-plasmid) for additional 30 min. Afterward, the unbound plasmid was washed off using TF buffer, and the solution of Promega Diamond dye in T10 buffer (10 mM Tris-HCl (pH 8.0), 1 mM EDTA) was added. […] IC50 value represents the mean of two to four independent measurements.

E. coli Topo IV = molecular target: T2, E. coli Topo IV (Escherichia coli, UniProt P0AFI2); assay: Topo IV Relaxation High Throughput Plate assay, E. coli; format: biochemical; details: for LE Topo IV E. coli: LE = (1.37/HA) × pIC50
T2 construct: purchased Inspiralis (Norwich, UK)
Experimental: as §1

MRSA (QA-11.4) = assay: MIC broth microdilution, MRSA QA-11.4; format: cell-based, methicillin-resistant S. aureus; details: Staphylococcus aureus, 20 h, read-out: MIC MRSA (QA-11.4)
Experimental: (§2) Antimicrobial testing was carried out by the broth microdilution method in 96-well plate format following the Clinical and Laboratory Standards Institute (CLSI) guidelines and European Committee on Antimicrobial Susceptibility Testing (EUCAST) recommendations. Bacterial suspension of specific bacterial strain equivalent to 0.5 McFarland turbidity standard was diluted with cation-adjusted Mueller Hinton broth with TES (Thermo Fisher Diagnostic, Landsmeer, The Netherlands), to obtain a final inoculum of 10^5 CFU/mL. Compounds dissolved in DMSO and inoculum were mixed together and incubated for 18–20 h at 35 °C. Suspensions of Mycobacterium sp. were prepared into a tube of Middelbrook 7H9 broth supplemented with 5% OADC (Thermo Scientific, Trek Diagnostic Systems, West Sussex, UK) and incubated for at least 10 days. After incubation the minimal inhibitory concentration (MIC) values were determined by visual inspection as the lowest dilution of compounds showing no turbidity. Tetracycline was used as a positive control on every assay plate.

[1] = system: E. faecalis DRK 057 (ATCC 29212); assay: MIC broth microdilution, E. faecalis; format: cell-based
Experimental: as §2

S. pneumoniae (QA-10/02) = assay: MIC broth microdilution, S. pneumoniae; format: cell-based; details: Streptococcus pneumoniae
Experimental: as §2

[2] = system: S. agalactiae RDK 047 (QA-990/02); assay: MIC broth microdilution, S. agalactiae; format: cell-based
Experimental: as §2

E. coli (QA-11.8) = assay: MIC broth microdilution, E. coli QA-11.8; format: cell-based
Experimental: as §2

E. coli N43 (CGSC# 5583) = assay: MIC broth microdilution, E. coli N43; format: cell-based; details: Escherichia coli
Experimental: as §2

[3] = system: S. alachua RDK 030c (QA-1482/04); assay: MIC broth microdilution, S. alachua; format: cell-based
Experimental: as §2

M. avium = assay: MIC, M. avium; format: cell-based
Experimental: as §2

HUVEC = assay: Metabolic activity assessment (cytotoxicity), HUVEC; format: cell-based; details: Homo sapiens, metabolic activity after 72 h treatment
Experimental: Cells of the HepG2 line (ATCC® HB-8065™) and HUVEC (ATCC® CRL-1730™) were cultured in Dulbecco’s Modified Eagle Medium (DMEM; Sigma-Aldrich, St. Louis, MO, USA) supplemented with 10% heat-deactivated FBS (Gibco, Grand Island, NE, USA), 2 mM L-glutamine, 100 U/mL penicillin, 100 μg/mL streptomycin (all from Sigma-Aldrich, St. Louis, MO, USA) in a humidified chamber at 37 °C and 5% CO2. The experiments were carried out on passages 7–9 for both cell lines. The tested compounds were dissolved in DMSO and further diluted in culture medium to a desired final concentration. Cells were seeded into 96-well plates at 8 × 10^4 cells/mL (100 μL/well) and incubated for 24 h to attach onto the wells. Cells were treated with 1 μM and 50 μM of each compound of interest or corresponding vehicle as control. […] The metabolic activity was assessed after 72 h treatment using the CellTiter 96 Aqueous One Solution Cell Proliferation Assay (Promega, Madison, WI, USA), in accordance with the manufacturer’s instructions. The absorbance was measured at 492 nm on an automated microplate reader BioTek Synergy HT (BioTek Instruments, Inc., Winooski, VT, USA). Data are presented as the percentage of metabolic activity of control cells stimulated with vehicle or as IC50 value (mean ± SD) from two independent experiments, each conducted in duplicate or triplicate. IC50 values were calculated by a non-linear regression model using Graph Pad Prism 7 software.

in vitro = details: PAMPA
Experimental: Prior to the measurements of solubility and permeability isocratic HPLC methods were developed. […] The individual method parameters for each compound are given in the Supplementary Materials Table S1.
A 96-well precoated three-layer PAMPA plates (Corning® Gentest™ Pre-coated PAMPA Plate System, Corning, NY, USA) were used according to the manufacturer’s instructions and as described previously with 300 µL of the donor solutions in the bottom compartment and 200 µL of the acceptor solution (pH 7.4 PBS) in the upper compartment at 37 °C and a 4-h incubation time. The initial and end donor solutions were injected at a 5 µL injection volume. The initial donor solutions were also diluted 100-fold and injected at a 100 µL injection volume to serve as external references for the end acceptor solutions which were injected at the same injection volume. The permeability calculations were made with a manufacturer-provided Excel spreadsheet directly from the measured peak areas accounting for the relevant dilutions and injection volumes.

[4] = Enterococcus faecalis, ATCC29212; read-out: MIC E. faecalis DRK 057 (ATCC 29212)
[5] = Streptococcus agalactiae; read-out: MIC S. agalactiae RDK 047 (QA-990/02)
[6] = Escherichia coli, 20 h; read-out: MIC E. coli (QA-11.8)
[7] = read-out: E. coli N43 MIC in molar
[8] = read-out: MIC E. coli N43 (CGSC# 5583)
[9] = Salmonella; read-out: MIC S. alachua RDK 030c (QA-1482/04)
[10] = Mycobacterium avium; read-out: MIC M. avium

T1 sequence (Q2FYS5 whole entry): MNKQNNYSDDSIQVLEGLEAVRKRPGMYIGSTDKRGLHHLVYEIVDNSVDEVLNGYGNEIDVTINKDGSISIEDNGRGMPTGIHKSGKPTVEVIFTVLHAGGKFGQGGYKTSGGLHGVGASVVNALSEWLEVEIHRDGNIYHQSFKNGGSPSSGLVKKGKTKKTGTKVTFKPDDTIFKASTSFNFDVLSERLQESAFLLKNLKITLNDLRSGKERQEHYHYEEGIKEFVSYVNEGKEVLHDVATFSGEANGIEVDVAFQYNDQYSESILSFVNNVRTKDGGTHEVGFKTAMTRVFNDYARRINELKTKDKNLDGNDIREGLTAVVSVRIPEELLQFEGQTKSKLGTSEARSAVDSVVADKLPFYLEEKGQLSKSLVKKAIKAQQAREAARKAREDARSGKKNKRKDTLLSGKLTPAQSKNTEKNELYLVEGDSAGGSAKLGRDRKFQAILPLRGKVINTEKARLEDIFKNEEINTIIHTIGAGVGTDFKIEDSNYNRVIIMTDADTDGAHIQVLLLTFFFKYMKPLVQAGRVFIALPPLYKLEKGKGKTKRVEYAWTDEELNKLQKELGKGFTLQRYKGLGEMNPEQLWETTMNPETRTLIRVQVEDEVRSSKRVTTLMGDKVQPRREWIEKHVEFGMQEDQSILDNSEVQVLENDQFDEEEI
T1 sequence (Q2FYS4 whole entry): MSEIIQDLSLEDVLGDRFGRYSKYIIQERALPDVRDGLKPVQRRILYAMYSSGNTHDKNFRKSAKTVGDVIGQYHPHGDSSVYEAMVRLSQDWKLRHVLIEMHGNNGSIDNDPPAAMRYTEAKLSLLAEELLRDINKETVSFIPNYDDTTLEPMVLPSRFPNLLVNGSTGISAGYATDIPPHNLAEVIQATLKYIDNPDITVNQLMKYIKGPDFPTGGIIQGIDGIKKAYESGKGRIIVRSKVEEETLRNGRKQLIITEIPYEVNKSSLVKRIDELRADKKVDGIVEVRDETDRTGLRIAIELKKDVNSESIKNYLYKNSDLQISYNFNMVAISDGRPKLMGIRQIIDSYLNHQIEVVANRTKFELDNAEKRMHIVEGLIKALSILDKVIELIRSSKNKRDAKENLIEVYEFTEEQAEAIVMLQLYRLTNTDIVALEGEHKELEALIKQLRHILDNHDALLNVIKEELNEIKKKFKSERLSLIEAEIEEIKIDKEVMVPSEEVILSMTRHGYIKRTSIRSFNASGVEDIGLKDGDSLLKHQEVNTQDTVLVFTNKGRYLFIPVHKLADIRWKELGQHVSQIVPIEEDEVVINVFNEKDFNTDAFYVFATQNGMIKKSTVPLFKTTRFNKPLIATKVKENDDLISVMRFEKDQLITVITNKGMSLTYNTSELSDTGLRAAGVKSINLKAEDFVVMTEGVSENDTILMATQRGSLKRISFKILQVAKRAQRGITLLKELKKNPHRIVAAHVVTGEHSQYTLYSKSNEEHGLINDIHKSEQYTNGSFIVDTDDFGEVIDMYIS
T2 sequence (P0AFI2 whole entry): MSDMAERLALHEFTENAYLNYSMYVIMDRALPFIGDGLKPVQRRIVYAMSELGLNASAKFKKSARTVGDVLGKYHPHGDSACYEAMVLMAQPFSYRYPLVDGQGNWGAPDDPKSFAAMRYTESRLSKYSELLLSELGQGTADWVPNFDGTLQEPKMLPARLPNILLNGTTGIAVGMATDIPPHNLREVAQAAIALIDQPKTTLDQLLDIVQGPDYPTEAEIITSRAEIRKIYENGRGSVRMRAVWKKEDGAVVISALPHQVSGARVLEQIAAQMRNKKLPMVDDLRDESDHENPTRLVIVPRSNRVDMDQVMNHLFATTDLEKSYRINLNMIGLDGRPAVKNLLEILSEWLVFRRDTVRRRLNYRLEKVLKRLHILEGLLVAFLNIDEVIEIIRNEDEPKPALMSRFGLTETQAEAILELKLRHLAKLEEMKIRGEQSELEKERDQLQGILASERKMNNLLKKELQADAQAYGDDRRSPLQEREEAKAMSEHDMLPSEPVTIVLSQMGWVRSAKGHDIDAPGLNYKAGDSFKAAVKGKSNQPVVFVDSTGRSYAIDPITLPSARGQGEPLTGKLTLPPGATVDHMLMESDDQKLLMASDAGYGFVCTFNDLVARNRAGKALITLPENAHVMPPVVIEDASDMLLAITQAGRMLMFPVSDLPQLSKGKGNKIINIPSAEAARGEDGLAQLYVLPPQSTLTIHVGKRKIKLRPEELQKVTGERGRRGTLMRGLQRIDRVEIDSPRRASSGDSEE
T2 sequence (P20083 whole entry, further chain): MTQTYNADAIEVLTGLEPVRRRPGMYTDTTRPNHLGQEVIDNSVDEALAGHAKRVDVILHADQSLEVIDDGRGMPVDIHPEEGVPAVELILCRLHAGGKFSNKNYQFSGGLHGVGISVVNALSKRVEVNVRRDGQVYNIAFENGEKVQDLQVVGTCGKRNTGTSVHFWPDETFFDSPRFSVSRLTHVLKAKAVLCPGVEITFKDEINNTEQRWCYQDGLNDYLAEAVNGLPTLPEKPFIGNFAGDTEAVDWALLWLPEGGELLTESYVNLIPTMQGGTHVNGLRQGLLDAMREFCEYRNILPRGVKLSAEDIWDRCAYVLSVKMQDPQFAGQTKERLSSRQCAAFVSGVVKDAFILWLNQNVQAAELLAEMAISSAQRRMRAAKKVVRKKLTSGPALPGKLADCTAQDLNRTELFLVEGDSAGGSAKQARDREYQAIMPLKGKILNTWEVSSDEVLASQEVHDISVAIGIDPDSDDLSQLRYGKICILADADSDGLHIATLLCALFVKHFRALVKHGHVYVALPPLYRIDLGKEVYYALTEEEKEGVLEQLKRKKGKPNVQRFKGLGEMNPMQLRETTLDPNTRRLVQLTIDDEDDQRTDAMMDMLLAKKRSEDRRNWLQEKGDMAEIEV

Structure (SMILES)	IC50 (S. aureus Topo IV)	IC50 (E. coli Topo IV)	LE Topo IV E. coli (E. coli Topo IV)	MIC (MRSA (QA-11.4); resistant to cefoxitin)	MIC [1, 4]	MIC (S. pneumoniae (QA-10/02))	MIC [2, 5]	MIC (E. coli (QA-11.8); [6])	MIC (E. coli N43 (CGSC# 5583); [7])	MIC (E. coli N43 (CGSC# 5583); [8])	MIC [3, 9]	MIC (M. avium; [10])	IC50 (HUVEC)	Papp at 4 h (in vitro)	Papp at 4 h (in vitro; pH 7.4)	LE Topo IV S. aureus (S. aureus Topo IV)	also measured
COc1ccc2nccc(CCN3CCC(NCc4nc5ccccc5n4C)CC3)c2n1 [Compound 3, 1-(2-(6-Methoxy-1,5-naphthyridin-4-yl)ethyl)-N-((1-methyl-1H-benzo[d]imidazol-2-yl)methyl)piperidin-4-amine]	> 100 µM	1.18 ± 0.09 µM	0.25	4 µg/mL (≈ 9.29 µM)	4 µg/mL (≈ 9.29 µM)	2 µg/mL (≈ 4.65 µM)	< 1 µg/mL	64 µg/mL (≈ 149 µM)	37.2 µM	16 µg/mL	> 128 µg/mL	> 128 µg/mL	> 50 µM	> 2.7 ×10⁻⁶ cm/s	5.4 ×10⁻⁶ cm/s		
COc1ccc2nccc(CCN3CCC(NCc4cnn(-c5ccc(F)cc5)c4)CC3)c2n1 [Compound 4, N-((1-(4-Fluorophenyl)-1H-pyrazol-4-yl)methyl)-1-(2-(6-methoxy-1,5-naphthyridin-4-yl)ethyl)piperidin-4-amine]	> 100 µM	0.12 ± 0.01 µM	0.28	8 µg/mL (≈ 17.4 µM)	8 µg/mL (≈ 17.4 µM)	4 µg/mL (≈ 8.69 µM)	2 µg/mL (≈ 4.34 µM)	16 µg/mL (≈ 34.7 µM)	4.34 µM	2 µg/mL	128 µg/mL (≈ 278 µM)	128 µg/mL (≈ 278 µM)	9.64 ± 0.03 µM	> 2.7 ×10⁻⁶ cm/s	14.2 ×10⁻⁶ cm/s		
COc1ccc2nccc(CCN3CCC(NCc4cnn(-c5ccccc5)c4)CC3)c2n1 [Compound 5, 1-(2-(6-Methoxy-1,5-naphthyridin-4-yl)ethyl)-N-((1-phenyl-1H-pyrazol-4-yl)methyl)piperidin-4-amine]	29.6 ± 0.54 µM	0.085 ± 0.002 µM	0.29	1 µg/mL (≈ 2.26 µM)	1 µg/mL (≈ 2.26 µM)	0.5 µg/mL (≈ 1.13 µM)	1 µg/mL (≈ 2.26 µM)	2 µg/mL (≈ 4.52 µM)	2.26 µM	1 µg/mL	64 µg/mL (≈ 145 µM)	64 µg/mL (≈ 145 µM)	10.7 ± 0.01 µM	> 2.7 ×10⁻⁶ cm/s	25.5 ×10⁻⁶ cm/s	0.19	
COc1ccc2nccc(CCN3CCC(NCc4c(C)nc5c(C)cccn45)CC3)c2n1 [Compound 6, N-((2,8-Dimethylimidazo[1,2-a]pyridin-3-yl)methyl)-1-(2-(6-methoxy-1,5-naphthyridin-4-yl)ethyl)piperidin-4-amine]	> 100 µM	> 100 µM				> 128 µg/mL			288 µM	128 µg/mL			> 50 µM	> 2.7 ×10⁻⁶ cm/s	5.6 ×10⁻⁶ cm/s		MIC (MRSA (QA-11.4)): > 128 µg/mL; MIC ([1]; Enterococcus faecalis, ATCC29212, read-out: MIC E. faecalis DRK 057 (ATCC 29212)): > 128 µg/mL; MIC ([2]; Streptococcus agalactiae, read-out: MIC S. agalactiae RDK 047 (QA-990/02)): 128 µg/mL (≈ 288 µM); MIC (E. coli (QA-11.8); Escherichia coli, 20 h, read-out: MIC E. coli (QA-11.8)): > 128 µg/mL; MIC ([3]; Salmonella, read-out: MIC S. alachua RDK 030c (QA-1482/04)): > 128 µg/mL; MIC (M. avium; Mycobacterium avium, read-out: MIC M. avium): > 128 µg/mL
COc1ccc2nccc(CCN3CCC(NCc4cnn(-c5ccccc5)n4)CC3)c2n1 [Compound 8, 1-(2-(6-Methoxy-1,5-naphthyridin-4-yl)ethyl)-N-((2-phenyl-2H-1,2,3-triazol-4-yl)methyl)piperidin-4-amine]	> 100 µM	0.21 µM	0.28	1 µg/mL (≈ 2.25 µM)	1 µg/mL (≈ 2.25 µM)	0.25 µg/mL (≈ 0.564 µM)	0.5 µg/mL (≈ 1.13 µM)	32 µg/mL (≈ 72.1 µM)	2.26 µM	1 µg/mL	> 128 µg/mL	32 µg/mL (≈ 72.1 µM)	39.4 ± 5.47 µM	> 2.7 ×10⁻⁶ cm/s	10.6 ×10⁻⁶ cm/s		
COc1ccc2nccc(CCN3CCC(NCc4cnn(C(C)C)c4)CC3)c2n1 [Compound 9, N-((1-Isopropyl-1H-pyrazol-4-yl)methyl)-1-(2-(6-methoxy-1,5-naphthyridin-4-yl)ethyl)piperidin-4-amine]	40.38 ± 0.09 µM	0.23 µM	0.30	1 µg/mL (≈ 2.45 µM)	1 µg/mL (≈ 2.45 µM)	0.5 µg/mL (≈ 1.22 µM)	0.5 µg/mL (≈ 1.22 µM)	8 µg/mL (≈ 19.6 µM)	0.61 µM	0.25 µg/mL	64 µg/mL (≈ 157 µM)	128 µg/mL (≈ 313 µM)	> 50 µM	> 2.7 ×10⁻⁶ cm/s	3.3 ×10⁻⁶ cm/s	0.20	
